Test results reported in ChEMBL document CHEMBL1156029, “The discovery of thienopyridine analogues as potent IkappaB kinase beta inhibitors. Part II” (Bioorg Med Chem Lett, 2009).
The source made the active and inactive calls. The calls are words filed in the database; no cut-off is given here.

Columns and labels:
[1] = target: Fibroblast growth factor receptor 3 (Homo sapiens, UniProt P22607); assay: Inhibition of FGFR3
Ephrin type-A receptor 3 = target: T1, Ephrin type-A receptor 3 (Homo sapiens, UniProt P29320); assay: Inhibition of Hek
T1 sequence (P29320 whole entry): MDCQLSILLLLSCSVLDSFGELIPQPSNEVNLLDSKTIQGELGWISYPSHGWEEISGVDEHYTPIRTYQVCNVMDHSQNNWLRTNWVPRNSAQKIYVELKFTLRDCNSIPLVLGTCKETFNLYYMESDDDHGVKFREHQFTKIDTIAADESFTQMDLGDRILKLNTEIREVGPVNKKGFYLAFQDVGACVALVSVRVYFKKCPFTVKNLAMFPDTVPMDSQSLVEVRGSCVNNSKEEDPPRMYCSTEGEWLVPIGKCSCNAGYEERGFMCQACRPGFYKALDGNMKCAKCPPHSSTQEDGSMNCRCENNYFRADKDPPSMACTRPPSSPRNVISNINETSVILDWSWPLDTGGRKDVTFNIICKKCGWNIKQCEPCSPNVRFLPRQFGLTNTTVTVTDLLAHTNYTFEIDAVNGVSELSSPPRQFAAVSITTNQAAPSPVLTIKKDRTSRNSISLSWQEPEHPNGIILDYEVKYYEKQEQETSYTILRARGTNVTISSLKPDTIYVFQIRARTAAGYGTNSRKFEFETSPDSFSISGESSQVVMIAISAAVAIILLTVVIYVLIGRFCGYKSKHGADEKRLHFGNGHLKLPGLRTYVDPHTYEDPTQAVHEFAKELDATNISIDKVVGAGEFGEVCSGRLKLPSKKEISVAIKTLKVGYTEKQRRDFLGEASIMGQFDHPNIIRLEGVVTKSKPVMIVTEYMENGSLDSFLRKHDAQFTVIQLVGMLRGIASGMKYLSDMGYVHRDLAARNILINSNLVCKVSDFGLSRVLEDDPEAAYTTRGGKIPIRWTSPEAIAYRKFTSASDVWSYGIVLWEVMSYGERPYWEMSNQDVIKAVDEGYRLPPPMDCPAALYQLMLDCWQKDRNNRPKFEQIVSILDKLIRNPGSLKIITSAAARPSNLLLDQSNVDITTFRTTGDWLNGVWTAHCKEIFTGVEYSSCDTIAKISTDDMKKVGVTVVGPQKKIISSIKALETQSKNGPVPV

[2] = target: Insulin-like growth factor 1 receptor (Homo sapiens, UniProt P08069); assay: Inhibition of IGF1R
[3] = target: T2, Tyrosine-protein kinase ITK/TSK (Homo sapiens, UniProt Q08881); assay: Inhibition of Itk
T2 sequence (Q08881 whole entry): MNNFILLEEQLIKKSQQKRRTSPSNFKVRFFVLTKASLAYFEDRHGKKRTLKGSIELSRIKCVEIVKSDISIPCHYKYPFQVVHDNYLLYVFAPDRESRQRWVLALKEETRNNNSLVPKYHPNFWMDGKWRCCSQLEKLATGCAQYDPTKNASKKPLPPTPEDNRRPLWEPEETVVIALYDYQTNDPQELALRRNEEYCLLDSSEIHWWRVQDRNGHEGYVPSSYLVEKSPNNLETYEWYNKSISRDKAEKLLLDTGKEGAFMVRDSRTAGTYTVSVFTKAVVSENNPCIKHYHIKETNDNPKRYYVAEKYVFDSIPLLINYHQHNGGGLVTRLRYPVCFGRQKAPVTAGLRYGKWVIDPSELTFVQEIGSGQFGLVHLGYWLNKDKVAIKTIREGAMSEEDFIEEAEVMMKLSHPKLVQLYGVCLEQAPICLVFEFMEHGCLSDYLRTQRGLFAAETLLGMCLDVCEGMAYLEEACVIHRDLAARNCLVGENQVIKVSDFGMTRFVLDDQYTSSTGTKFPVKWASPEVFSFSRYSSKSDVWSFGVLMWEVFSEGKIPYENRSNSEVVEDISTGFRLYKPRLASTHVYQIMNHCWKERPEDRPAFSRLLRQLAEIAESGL

[4] = target: Platelet-derived growth factor receptor alpha (Homo sapiens, UniProt P16234); assay: Inhibition of PDGFRalpha
[5] = target: Tyrosine-protein kinase SYK (Homo sapiens, UniProt P43405); assay: Inhibition of Syk
[6] = target: Vascular endothelial growth factor receptor 1 (Homo sapiens, UniProt P17948); assay: Inhibition of VEGFR1
HeLa = assay: Inhibition of TNF-alpha-induced NF-kappaB transfected in human HeLa cells preincubated for 30 mins before TNFalpha challenge after 6 hrs by luciferase reporter gene assay; format: cell-based
[7] = Plasma concentration in mouse at 30 mg/kg, po after 120 mins; format: ADME, organism-based; parameters: dose 30 mg/kg, route oral
[8] = target: Mitogen-activated protein kinase 1 (Homo sapiens) (UniProt P28482); assay: Inhibition of MAPK2/ERK2 at 10 uM
[9] = target: Mitogen-activated protein kinase 14 (Homo sapiens) (UniProt Q16539); assay: Inhibition of p38alpha at 10 uM
[10] = target: Mitogen-activated protein kinase 11 (Homo sapiens) (UniProt Q15759); assay: Inhibition of p38beta2 at 10 uM
[11] = target: MAP kinase-activated protein kinase 2 (Homo sapiens) (UniProt P49137); assay: Inhibition of MAPKAP-K2 at 10 uM
[12] = target: Protein kinase C alpha type (Homo sapiens) (UniProt P17252); assay: Inhibition of PKCalpha at 10 uM
[13] = target: Rho-associated protein kinase 2 (Homo sapiens) (UniProt O75116); assay: Inhibition of ROCK-2 at 10 uM
[14] = target: Dual specificity tyrosine-phosphorylation-regulated kinase 1A (Homo sapiens) (UniProt Q13627); assay: Inhibition of DYRK1a at 10 uM
[15] = Inhibition of PP2a at 10 uM
[16] = target: Tyrosine-protein kinase BTK (Homo sapiens, UniProt Q06187); assay: Inhibition of Btk
Ephrin type-A receptor 2 = Ephrin type-A receptor 2 (Homo sapiens, UniProt P29317); assay: Inhibition of Eck
[17] = target: Hepatocyte growth factor receptor (Homo sapiens, UniProt P08581); assay: Inhibition of HGFR
Hepatocyte growth factor receptor, sequence (P08581 whole entry): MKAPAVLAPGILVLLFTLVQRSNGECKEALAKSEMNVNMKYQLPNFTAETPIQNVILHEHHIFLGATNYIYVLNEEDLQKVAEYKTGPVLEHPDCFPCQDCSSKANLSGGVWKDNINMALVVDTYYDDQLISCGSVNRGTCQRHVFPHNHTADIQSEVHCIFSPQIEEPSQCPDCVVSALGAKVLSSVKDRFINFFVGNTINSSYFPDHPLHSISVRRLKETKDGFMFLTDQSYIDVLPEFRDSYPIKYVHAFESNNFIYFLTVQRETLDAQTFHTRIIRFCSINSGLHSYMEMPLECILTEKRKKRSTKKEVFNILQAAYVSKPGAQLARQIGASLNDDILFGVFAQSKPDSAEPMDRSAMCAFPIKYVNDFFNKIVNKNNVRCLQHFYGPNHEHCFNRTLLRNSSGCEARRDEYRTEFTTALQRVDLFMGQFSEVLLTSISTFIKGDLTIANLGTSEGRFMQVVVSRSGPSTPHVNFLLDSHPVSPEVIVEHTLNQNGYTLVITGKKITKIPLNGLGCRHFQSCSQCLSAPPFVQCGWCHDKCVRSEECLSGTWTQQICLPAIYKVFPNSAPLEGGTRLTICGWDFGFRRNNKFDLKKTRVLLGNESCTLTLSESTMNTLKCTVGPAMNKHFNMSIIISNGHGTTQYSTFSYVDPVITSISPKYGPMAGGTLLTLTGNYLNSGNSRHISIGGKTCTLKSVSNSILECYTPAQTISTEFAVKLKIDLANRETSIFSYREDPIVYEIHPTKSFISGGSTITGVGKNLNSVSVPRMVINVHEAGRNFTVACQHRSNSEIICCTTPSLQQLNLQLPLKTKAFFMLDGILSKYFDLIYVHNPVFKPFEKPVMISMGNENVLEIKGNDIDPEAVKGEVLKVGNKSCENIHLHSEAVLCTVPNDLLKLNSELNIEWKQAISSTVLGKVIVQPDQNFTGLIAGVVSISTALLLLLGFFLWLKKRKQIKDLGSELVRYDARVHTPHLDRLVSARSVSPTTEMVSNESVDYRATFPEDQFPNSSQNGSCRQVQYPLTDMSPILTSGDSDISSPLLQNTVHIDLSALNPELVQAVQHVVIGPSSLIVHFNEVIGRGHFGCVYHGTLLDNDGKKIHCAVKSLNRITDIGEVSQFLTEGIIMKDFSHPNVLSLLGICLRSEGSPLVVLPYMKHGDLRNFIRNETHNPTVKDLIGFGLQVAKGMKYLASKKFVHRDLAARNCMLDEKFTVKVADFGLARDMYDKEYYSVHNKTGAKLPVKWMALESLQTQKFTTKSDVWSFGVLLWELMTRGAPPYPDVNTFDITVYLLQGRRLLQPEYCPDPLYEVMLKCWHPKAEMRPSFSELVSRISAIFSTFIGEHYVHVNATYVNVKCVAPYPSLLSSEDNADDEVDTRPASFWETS

Mitogen-activated protein kinase 14 (Homo sapiens), sequence (Q16539 whole entry): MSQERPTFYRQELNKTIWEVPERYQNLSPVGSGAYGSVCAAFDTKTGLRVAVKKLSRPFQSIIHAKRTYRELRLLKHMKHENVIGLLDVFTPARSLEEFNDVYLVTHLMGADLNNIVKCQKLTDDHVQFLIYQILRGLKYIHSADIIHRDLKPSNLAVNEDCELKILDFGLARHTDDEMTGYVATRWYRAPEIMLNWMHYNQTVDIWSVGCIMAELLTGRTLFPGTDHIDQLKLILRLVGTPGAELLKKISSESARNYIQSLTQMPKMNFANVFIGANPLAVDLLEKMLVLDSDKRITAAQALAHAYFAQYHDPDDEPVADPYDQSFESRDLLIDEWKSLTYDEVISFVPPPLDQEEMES
Tyrosine-protein kinase BTK, sequence (Q06187 whole entry): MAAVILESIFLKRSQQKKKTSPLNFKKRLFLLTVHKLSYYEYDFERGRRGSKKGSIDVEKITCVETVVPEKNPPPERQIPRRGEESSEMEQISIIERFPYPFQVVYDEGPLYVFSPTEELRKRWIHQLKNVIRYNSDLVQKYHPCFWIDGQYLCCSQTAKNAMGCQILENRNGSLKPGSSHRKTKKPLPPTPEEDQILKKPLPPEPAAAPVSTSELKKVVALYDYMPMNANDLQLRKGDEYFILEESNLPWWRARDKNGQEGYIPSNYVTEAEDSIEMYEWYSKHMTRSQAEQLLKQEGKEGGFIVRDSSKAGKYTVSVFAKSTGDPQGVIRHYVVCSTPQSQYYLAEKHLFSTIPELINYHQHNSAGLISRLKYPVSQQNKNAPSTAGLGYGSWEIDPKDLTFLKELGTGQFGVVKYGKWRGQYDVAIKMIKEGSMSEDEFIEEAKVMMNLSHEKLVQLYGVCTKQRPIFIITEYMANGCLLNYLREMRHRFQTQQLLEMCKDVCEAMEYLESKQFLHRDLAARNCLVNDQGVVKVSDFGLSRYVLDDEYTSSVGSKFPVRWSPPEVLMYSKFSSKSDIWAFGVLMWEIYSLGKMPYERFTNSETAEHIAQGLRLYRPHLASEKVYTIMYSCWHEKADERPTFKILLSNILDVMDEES
MAP kinase-activated protein kinase 2 (Homo sapiens), sequence (P49137 whole entry, looked up): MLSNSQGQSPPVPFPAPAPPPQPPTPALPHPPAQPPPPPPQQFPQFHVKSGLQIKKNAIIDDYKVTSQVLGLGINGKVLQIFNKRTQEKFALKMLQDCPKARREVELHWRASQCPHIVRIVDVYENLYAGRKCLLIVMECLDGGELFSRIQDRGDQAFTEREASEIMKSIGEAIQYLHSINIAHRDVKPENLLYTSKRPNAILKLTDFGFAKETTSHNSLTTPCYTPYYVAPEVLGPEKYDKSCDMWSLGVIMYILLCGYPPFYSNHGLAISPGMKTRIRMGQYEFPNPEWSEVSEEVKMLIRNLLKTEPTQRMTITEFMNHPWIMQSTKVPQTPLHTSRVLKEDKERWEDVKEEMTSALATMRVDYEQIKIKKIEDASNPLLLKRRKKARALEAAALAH
Mitogen-activated protein kinase 11 (Homo sapiens), sequence (Q15759 whole entry): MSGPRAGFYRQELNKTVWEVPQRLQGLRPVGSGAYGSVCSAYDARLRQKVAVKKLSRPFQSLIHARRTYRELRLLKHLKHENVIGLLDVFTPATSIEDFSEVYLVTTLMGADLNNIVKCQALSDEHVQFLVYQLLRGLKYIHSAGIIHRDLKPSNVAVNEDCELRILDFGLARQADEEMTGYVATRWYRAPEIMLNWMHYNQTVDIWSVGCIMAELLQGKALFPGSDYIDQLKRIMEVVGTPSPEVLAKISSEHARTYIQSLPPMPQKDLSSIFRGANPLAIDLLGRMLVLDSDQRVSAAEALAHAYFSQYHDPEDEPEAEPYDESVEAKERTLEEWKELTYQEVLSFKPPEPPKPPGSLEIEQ
Fibroblast growth factor receptor 3, sequence (P22607 whole entry): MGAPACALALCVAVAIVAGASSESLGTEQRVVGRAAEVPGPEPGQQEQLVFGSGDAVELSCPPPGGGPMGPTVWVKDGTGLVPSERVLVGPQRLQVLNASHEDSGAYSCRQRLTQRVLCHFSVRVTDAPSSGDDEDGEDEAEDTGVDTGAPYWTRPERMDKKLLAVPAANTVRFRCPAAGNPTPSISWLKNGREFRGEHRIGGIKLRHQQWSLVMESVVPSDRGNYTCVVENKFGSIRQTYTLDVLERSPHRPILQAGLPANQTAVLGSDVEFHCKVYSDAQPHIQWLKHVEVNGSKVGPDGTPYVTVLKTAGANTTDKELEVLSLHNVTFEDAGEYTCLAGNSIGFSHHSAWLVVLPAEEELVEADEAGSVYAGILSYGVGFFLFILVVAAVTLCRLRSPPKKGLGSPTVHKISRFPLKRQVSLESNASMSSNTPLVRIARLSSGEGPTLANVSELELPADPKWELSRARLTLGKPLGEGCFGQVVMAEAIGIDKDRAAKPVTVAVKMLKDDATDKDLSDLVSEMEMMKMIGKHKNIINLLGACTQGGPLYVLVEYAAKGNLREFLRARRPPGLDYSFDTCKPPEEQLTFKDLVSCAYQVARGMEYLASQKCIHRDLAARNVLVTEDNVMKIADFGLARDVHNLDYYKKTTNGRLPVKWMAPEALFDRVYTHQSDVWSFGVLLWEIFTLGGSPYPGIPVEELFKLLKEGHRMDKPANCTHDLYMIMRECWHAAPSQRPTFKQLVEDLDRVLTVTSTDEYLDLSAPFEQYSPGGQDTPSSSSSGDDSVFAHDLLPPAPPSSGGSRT
Mitogen-activated protein kinase 1 (Homo sapiens), sequence (P28482 whole entry): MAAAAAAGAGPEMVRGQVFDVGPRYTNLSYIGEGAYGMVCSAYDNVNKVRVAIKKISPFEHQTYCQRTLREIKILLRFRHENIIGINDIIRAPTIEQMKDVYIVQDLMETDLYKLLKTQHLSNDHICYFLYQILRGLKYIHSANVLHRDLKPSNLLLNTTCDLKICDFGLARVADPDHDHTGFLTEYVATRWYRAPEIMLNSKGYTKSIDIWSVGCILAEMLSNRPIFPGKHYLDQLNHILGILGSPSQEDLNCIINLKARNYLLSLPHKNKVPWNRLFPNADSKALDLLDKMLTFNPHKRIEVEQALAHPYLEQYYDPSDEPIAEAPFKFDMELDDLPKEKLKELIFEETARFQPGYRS

## CCCc1cc(N2CCC(N)CC2)nc2sc(C(N)=O)c(N)c12
[1]
  IC50: > 7 µM
Ephrin type-A receptor 3
  IC50: 7 µM
[2]
  IC50: > 7 µM
[3]
  IC50: > 7 µM
[4]
  IC50: > 7 µM
[5]
  IC50: > 7 µM
[6]
  IC50: > 7 µM
HeLa
  IC50: 1.5 µM
[7]
  concentration at 2 h: 0.02 µM
[8]
  Activity: inactive
[9]
  Activity: inactive
[10]
  Activity: inactive
[11]
  Activity: inactive
[12]
  Activity: inactive
[13]
  Activity: inactive
[14]
  Activity: inactive
[15]
  Activity: inactive
[16]
  IC50: > 7 µM
Ephrin type-A receptor 2
  IC50: > 7 µM

## CCCc1cc(N2CCCC(O)C2)nc2sc(C(N)=O)c(N)c12 (stereo not drawn)
[1]
  IC50: > 7 µM
Ephrin type-A receptor 3
  IC50: > 7 µM
[17]
  IC50: > 7 µM
[2]
  IC50: > 7 µM
[3]
  IC50: > 7 µM
[4]
  IC50: > 7 µM
[6]
  IC50: > 7 µM
HeLa
  IC50: 6.1 µM
[7]
  concentration at 2 h: 3.1 µM
[8]
  Activity: inactive
[9]
  Activity: inactive
[10]
  Activity: inactive
[11]
  Activity: inactive
[12]
  Activity: inactive
[13]
  Activity: inactive
[14]
  Activity: inactive
[15]
  Activity: inactive
[16]
  IC50: > 7 µM
Ephrin type-A receptor 2
  IC50: > 7 µM

## CCCc1cc(N2CCC(O)CC2)nc2sc(C(N)=O)c(N)c12
[1]
  IC50: > 7 µM
Ephrin type-A receptor 3
  IC50: 9 µM
[17]
  IC50: > 7 µM
[2]
  IC50: > 7 µM
[3]
  IC50: > 7 µM
[4]
  IC50: > 7 µM
[5]
  IC50: > 7 µM
[6]
  IC50: > 7 µM
HeLa
  IC50: 5.3 µM
[7]
  concentration at 2 h: 15.5 µM
[8]
  Activity: inactive
[9]
  Activity: inactive
[10]
  Activity: inactive
[11]
  Activity: inactive
[12]
  Activity: inactive
[13]
  Activity: inactive
[14]
  Activity: inactive
[15]
  Activity: inactive
[16]
  IC50: > 7 µM
Ephrin type-A receptor 2
  IC50: > 7 µM

## CCCc1cc(N2CCNCC2)nc2sc(C(N)=O)c(N)c12
[1]
  IC50: > 7 µM
Ephrin type-A receptor 3
  IC50: 8 µM
[17]
  IC50: > 7 µM
[2]
  IC50: > 7 µM
[3]
  IC50: > 7 µM
[4]
  IC50: 0.3 µM
[5]
  IC50: > 7 µM
[6]
  IC50: > 7 µM
HeLa
  IC50: 7.5 µM
[7]
  concentration at 2 h: < 0.01 µM
[8]
  Activity: inactive
[9]
  Activity: inactive
[10]
  Activity: inactive
[11]
  Activity: inactive
[12]
  Activity: inactive
[13]
  Activity: inactive
[14]
  Activity: inactive
[15]
  Activity: inactive
[16]
  IC50: > 7 µM
Ephrin type-A receptor 2
  IC50: > 7 µM
